Measurements from patent US6677302B2, “Compositions and methods for the treatment of viral disorders” (The Trustees of Boston University, priority 1996, dated 2004).
Marks after values point to notes of the source that are not given here.

Columns and labels:
[1] = tested on: Fibroblasts (mouse BALB/c-3T3); test: MIC on cell proliferation, 7 days in culture; type: cell-based
Experimental: (§1) The ability of arginine butyrate to induce differentiation has been evaluated and is measured by inhibition of growth, in some of the neoplastic cell types previously reported to be sensitive to (sodium) butyric acid, and found arginine butyrate to be as potent as butyric acid. We have also extended that work to additional cell types and found Arginine Butyrate to induce differentiation in these new cell types. Table 1 lists the cell types tested and the minimum inhibitory concentration (MIC) of sodium butyrate (NaB) and arginine butyrate (ArgB) on these cell lines. The MIC is the lowest dose that prevents all growth over the 7 days that the cells are maintained in culture, that is the minimum dose that prevents an increase in cell number. […] The […] of ArgB and NaB were equivalent on all cell lines tested.

[2] = tested on: Fibroblasts (normal human); test: MIC on cell proliferation, 7 days in culture; type: cell-based; conditions: lowest dose that prevents all growth over 7 days
Experimental: as §1

[3] = tested on: A549 (non-small cell cancer); test: Survival fraction after 72 hours exposure (MTT assay); type: cell-based, human
Experimental: (§2) Growth inhibition was measured by the MTT assay. […] PC-3=prostate cancer; A549=non-small cell cancer; OvCar=ovarian cancer; CaCo=colon cancer; MCF-7=breast cancer; and SW900=non-small cell lung cancer.

CaCo (colon cancer) = test: as above; type: cell-based, human
Experimental: as §2

[4] = tested on: EBV-TK mRNA in P3RH1 (EBV B-cell producer line); test: EBV-TK mRNA induction in lymphoma cell lines; type: cell-based, human; conditions: 12 hours, 3 mM
Experimental: (§3) Because of arginine butyrate's ability to induce various genes, its ability to induce EBV-TK mRNA in human lymphoma cell lines was evaluated. FIG. 7 provides bar graphs of the basal levels of TK and the levels following 12 hours of incubation with 3 mM arginine butyrate in 3 lymphoma cell lines: X50-7 a latent large cell lymphoma (B cell); P3RH1 an EBV B-cell producer line derived from Burkitt's lymphoma; and Raji a non-producer line derived from a Burkitt's lymphoma. EBV-TK levels were not increased in the EBV non-producer cell line, Raji, which has a high basal level of TK, but were increased approximately 4 fold in an EBV producer cell line and 10 fold in a non-producer cell line.

[5] = tested on: EBV-TK mRNA in Raji (non-producer line); test: EBV-TK mRNA induction in lymphoma cell lines; type: cell-based, human; conditions: high basal level of TK, 12 hours, 3 mM
Experimental: as §3

[6] = tested on: EBV-TK mRNA in X50-7 (latent large cell lymphoma); test: EBV-TK mRNA induction in lymphoma cell lines; type: cell-based, human; conditions: non-producer (latent) line X50-7; 12 hours, 3 mM
Experimental: as §3

fetal globin mRNA = test: Fetal globin mRNA response in patients; type: in vivo, human; conditions: β-hemoglobinopathies; IV 500 to 2,000 mg/kg/day, 2-7 weeks
Experimental: Eleven pediatric and twelve adult patients with β-hemoglobinopathies have been treated with IV arginine butyrate at a starting dose of 500 mg/kg/day for 2-7 weeks. Dose escalation at the rate of 250 mg/kg/day to a maximum of 2,000 mg/kg/day was permitted.

SKNSH cells = test: Induction of apoptosis; type: cell-based, human; conditions: FIG. 1b
[7] = tested on: HIV p24 in co-cultures of human PBMC and Ci11; test: HIV p24 production, radio-immuno assay; type: cell-based; conditions: 72 hours post-cultivation; FIG. 13
From the text: The effect of arginine butyrate on HIV p24 production could be easily studied in co-cultures of human PBMC and Ci11, an HIV infected cell line. […] Despite these encouraging results with a more direct assay than those published previously, the potential risks to HIV+ patients of treatment with arginine butyrate have not been evaluated as these patients were excluded from the protocol (FIG. 13). HIV p24 levels assessed by radio-immuno assay.

[8] = European pharmacokinetic studies; 500 mls of a 5% solution; two normal volunteers; cited from earlier work
[9] = tested on: SY5Y neuroblastoma cell line; test: Induction of apoptosis / DNA fragmentation
[10] = Table 4, 0.5 AB (0.5 mM), 72 hour

## arginine butyrate
[1]
  MIC: >5,000 μM
[2]
  MIC: >5,000 μM
[3]; Table 3, 0.5 AB (0.5 mM), 72 hours
  Survival Fraction: 0.92
[3]; [10]
  Survival Fraction: 0.76*
[3]; Table 4, .05 AB, 72 hour
  Survival Fraction: 0.71*
CaCo (colon cancer); Table 3, 1.0 AB (1.0 mM), 72 hours
  Survival Fraction: 0.60*
CaCo (colon cancer); [10]
  Survival Fraction: 0.67*
CaCo (colon cancer); Table 4, .05 AB, 72 hour
  Survival Fraction: 0.81*
[4]
  EBV-TK level increase: approximately 4 fold
[5]
  EBV-TK levels: not increased
[6]
  EBV-TK level increase: ~10 fold
Fetal globin mRNA
  response as judged by increase in fetal globin mRNA: most patients showed response
SKNSH cells
  apoptosis: induces apoptosis
[7]
  HIV p24 production: significant decrease in p24 production
[8]
  elimination period: 15 min
[9]; FIG. 1c
  apoptosis: induces apoptosis
[9]; both 0.5 and 1.0 mM
  DNA fragmentation: significant DNA fragmentation was found
